Experimental data from patent US7402600B2, “Nitroderivatives of cardiovascular agents” (NicOx S.A., priority 1999, dated 2008).

Key:
[1] = tested on: gastrointestinal mucosa, GPT, blood pressure; settings: rat, in vivo; for Gastroenteropathy % without L-NAME: 4 weeks
Experimental: The endothelial dysfunction is evaluated by determining the damage to the gastrointestinal mucosa, the hepatic damage and blood hypertension induced by administration of L-NAME.
The animals (rats) are divided in groups as herein below shown. The group receiving L-NAME is treated for 4 weeks with said compound dissolved at a concentration of 400 mg/litre in drinking water. The following groups are constituted (No. 10 animals for group):
(§1) • 1° group: only carrier (aqueous suspension 1% w/v of carboxymethylcellulose, dose: 5 ml/Kg when the drug is administered by os, phisiologic solution when administered parenterally), • 2° group: carrier+L-NAME, B) Groups Administered with the Drug: • 3° group: carrier+drug, • 4° group: carrier+drug+L-NAME.
The administration routes are those known for the drug, and can be the oral or subcutaneous, intraperiteneal, intravenous or intramuscular route. […] The drug is administered once a day for 4 weeks.
At the end of the four weeks treatment access to water is prevented and after 24 hours the animals are sacrificed.
One hour before the sacrifice blood-pressure is determined, and a blood pressure increase is taken as an evaluation of the damage to vascular endothelium. […] The hepatic damage is determined by evaluation of the glutamic-pyruvic transaminase (GPT increase) after sacrifice.
Test 3-Experimental in Vivo Model with N^w-nitro-L-arginine-methyl ester (L-NAME): Gastric Tolerability (Gastrointestinal Damage Incidence), Hepatic (GPT Dosage, Glutamic-pyruvic Transaminase) and Cardiovascular (Blood Pressure) Tolerability of Some Drugs Screened as Precursors of the Compounds of the Invention.
The endothelial dysfunction is evaluated by determining the damage induced by L-NAME administration to the gastrointestinal mucosa, the hepatic damage (GPT increase), and the vascular endothelium or cardiovascular damage as blood hypertension.
The animals (rats, average weight 200 g) are divided in groups as herein below described. The group receiving L-NAME is treated for 4 weeks with said compound dissolved at the concentration of 400 mg/litre in drinking water. The following groups (No. 10 animals for group) are constituted:
as §1, with “group: treatment:” for “group:”, “physiologic” for “phisiologic”, “by parenteral route),” for “administered parenterally),”, “Treated” for “Administered”
Each drug is administered once a day for 4 weeks.
At the end of the four weeks access to water is prevented and after 24 hours the animals are sacrificed.
One hour before the sacrifice blood pressure is determined and a blood pressure increase is taken as an indication of a damage being occurred to vascular endothelium.
The hepatic damage is determined by evaluation after the sacrifice of the glutamic-pyruvic transaminase (GPT increase).
The % gastric lesions have been determined as in Test 1.

[2] = tested on: rats; experiment: in vivo; settings: rats not treated with NEM, single dose, s.c.
Experimental: (§2) The animals are sacrificed after 24 hours and then one proceeds to the evaluation of the damage to the gastrointestinal mucosa.

[3] = tested on: gastrointestinal mucosa; experiment: Test 1 (NEM): gastric tolerability of precursor drugs in rats treated or not with N-ethylmaleimide
Experimental: The animals (rats) are distributed in the following groups (no. 10 animals for group):
• 1° group: treatment: only carrier (aqueous suspension 1% w/v of carboxymethylcellulose, dose: 5 ml/Kg when the drug is administered by os, or a physiologic solution when parenterally administered, i.e. by subcutaneous, intraperitoneal, intravenous or intramuscular route), • 2° group: treatment: carrier as above defined+NEM, B) Groups Treated with the Drug: • group I: treatment: carrier+drug, • group II: treatment: carrier+drug+NEM.
The administration routes are those known for the drug, and can be the oral or subcutaneous, intraperitoneal, intravenous or intramuscular route.
as §2
Test 1—Experimental Model in Vivo with N-ethylmaleimide (NEM): Study of the Gastric Tolerability of Some Drugs Screened as Precursors of the Compounds of the Invention.
The animals (rats, weight about 200 g) are distributed in the following groups (No. 10 animals for group):
• 1° group: treatment: only carrier (aqueous suspension 1% w/v of carboxymethylcellulose, dose: 5 ml/Kg when the drug is administered by os, physiologic solution when by parenteral route), • 2° group: treatment: carrier+NEM B) Groups Administered with Each Drug: • group I: treatment: carrier+drug, • group II: treatment: carrier+drug+NEM.
The drug is administered one hour later, in suspension in the carrier. Animals are sacrificed after 24 hours and evaluation of the damage to the gastrointestinal mucosa is made by counting the number of rats, inside each group, with lesions to the stomach at a visual inspection. The total number of said rats is then divided by the total number of rats of the group and multiplied by 100.

[4] = Test 5: inhibition of radical production from FeII (deoxyribose degradation); settings: 10^-4 M methanolic solution, 37° C. one hour, absorbance 532 nm
Experimental: Test 5 is a […] test wherein 0.1 ml aliquots of 10^−4 M methanolic solutions of the tested products are added to test tubes containing a solution formed by 0.2 ml of 2 mM desoxyribose, 0.4 ml of phosphate buffer pH 7.4 100 mM and 0.1 ml of 1 mM Fe^II(NH4)2(SO4)2 in 2 mM HCl. The test tubes are then maintained at 37° C. for one hour. Then in each test tube 0.5 ml of a 2.8% solution in water of trichloroacetic acid and 0.5 ml of an aqueous 0.1 M solution of thiobarbituric acid are added, in the order. A reference blank is formed by adding to a test tube containing only the above described aqueous solution of reactants 0.1 ml of methanol. The test tubes are closed and heated in an oil bath at 100° C. for 15 minutes. A pink coloration is developed the intensity of which is proportional to the quantity of desoxyribose undergone to radical oxidative degradation. The solutions are cooled at room temperature and their absorbances are read at 532 nm against the blank. The inhibition induced by the precursor of B or B1 or C=-Tc-Y—H in the confront of radical production by Fe^II is determined by means of the following formula: (1−As/Ac)×100 wherein As and Ac are respectively the absorbance values of the solution containing the tested compound+the iron salt and that of the solution containing only the iron salt, the compound meets test 5 when the inhibition percentage of radical production as above defined from the precursor of B or B1 or C=-Tc-Y—H is higher than or equal to 50%. […]
0.1 ml aliquots of 10^−4 M methanolic solutions of 4-thiazolidin carboxylic acid and 2-oxo-4-thiazolidin carboxylic acid are added to test tubes containing an aqueous solution formed by mixing 0.2 ml of 2 mM deoxyribose, 0.4 ml of buffer phosphate pH 7.4 100 mM and 0.1 ml of 1 mM Fe^II(NH4)2(SO4)2 in 2 mM HCl. […] A pink coloration develops the intensity of which is proportional to the quantity of deoxyribose undergone to radical oxidative degradation. The solutions are cooled at room temperature and their absorbances at 532 nm are read against the blank. […]

[5] = Test 4: inhibition of radical production from DPPH; settings: tested substance 100 μM in methanol, 30 minutes, absorbance 517 nm
Experimental: Test 4 is a colorimetric test which must not be satisfied by the precursor of B or B1 (precursor of the X2 or X2a of the formulas (I) and (II) respectively). The inhibition of the production of radicals from DPPH (2,2-diphenyl-1-picryl-hydrazyl) is described in M. S. Nenseter et Al., Atheroscler. Thromb. 15, 1338-1344, 1995. 100 μM solutions in methanol of the tested substances are prepared, and an aliquot of each of said solutions is added to a DPPH solution in methanol 0.1 M. After having stored the solutions at room temperature away from light for 30 minutes, their absorbances are read at the wave length of 517 nm, together with that of the corresponding DPPH solution at the same concentration. The absorbance decrease with respect to that of the solution of DPPH at the same concentration of the test solutions is determined. The effectiveness of the tested compound in inhibiting formation of radicals by DPPH is expressed by the following formula: (1−AS/AC)×100 wherein AS and AC are respectively the absorbance values of the solution containing the test compound together with DPPH and of the solution containing only DPPH. Test 4 is satisfied when the inhibition is equal or greater than 50%.
Test 4: Inhibition of the Radical Production from DPPH of Some Substances Used as Precursors of B or B1 (Ref. Formulas I and II of the Invention)
The method is based on a calorimetric test in which DPPH (2,2-diphenyl-1-picryl-hydrazyl) is used as the compound-forming radicals (M. S. Nenseter et Al., Atheroscler. Thromb. 15, 1338-1344, 1995).
Solutions in methanol of the tested substances at a final concentration 100 μM are initially prepared. 0.1 ml of each of these solutions are added to aliquots of 1 ml of a methanol solution 0.1 M of DPPH and then the final volume is brought to 1.5 ml. After having stored the solutions at room temperature away from light for 30 minutes, the absorbance at the wave length of 517 nm is read. It is determined the absorbance decrease with respect to the absorbance of a solution containing the same concentration of DPPH.
The efficacy of the test compound to inhibit the production of radicals, or antiradical activity, is expressed by the following formula: (1−AS/AC)×100 wherein AS and AC are, respectively, the absorbance values of the solution containing the test compound together+DPPH and of the solution containing only DPPH.

[6] = in vivo; settings: rat, in vivo
Experimental: as §2

[7] = tested on: gastric mucosa; experiment: Example F6: gastric tolerability of invention compounds versus precursor drugs, with or without L-NAME; format: in vivo, rats; settings: rat, in vivo, 4 weeks
Text: Gastric Tolerability Test of the Compounds According to the Invention in the Confront of the Corresponding Precursor Drugs in Conditions of Endothelial Dysfunctions Induced by L-NAME (N^w-nitro-L-arginine-methyl ester).

[8] = tested on: Human endothelial cells of the umbilical vein; experiment: Test 2 (CIP): apoptosis (DNA fragmentation) induced by cumene hydroperoxide in endothelial cells; format: cell-based; settings: drug 10^-4 M; for inhibition of apoptosis induced by CIP (in words, t Student p<0.01): CIP 5 mM
Experimental: Test 2 (CIP): Protection parameter of endothelial cell against the oxidative stress induced by cumene hydroperoxide (CIP).
Human endothelial cells of the umbilical vein are prepared according to an usual standard procedure. Fresh umbilical veins are filled with a 0.1% by weight collagenase solution and incubated at 37° C. for 5 minutes.
The cells are collected from the perfusate by centrifugation and harvested in culture flasks T-75, pretreated with human fibronectin. The cells are then harvested in the same medium, further added with 10 ng/ml of bovine hypothalamic growth factor. When the cells of the primary cell culture (i.e. that directly obtained from ex-vivo) form a single layer of confluent cells (about 8,000,000 cells/flask), the culture is stopped and the layers washed and trypsinized. The cellular suspensions are transferred into the wells of a cell culture plate having 24 wells, half of which is then additioned with the same culture medium containing the drug at a 10^−4M concentration, and harvested in a thermostat at 37° C. at a constant moisture. Only the cells coming from said first sub-cultures are used for the experiments with cumene hydroperoxide (CIP).
Before starting the test, the cellular culture medium is removed and the cellular layers are carefully washed with a physiologic solution at a temperature of 37° C. The wells of the culture plate are then incubated for one hour with CIP at a 5 mM concentration in the culture medium. […] 5 replicates for each sample are carried out.
Human endothelial cells of the umbilical vein are prepared according to a standard method. Fresh umbilical veins are filled with a collagenase solution 0.1% by weight and incubated at 37° C. for 5 minutes.
The cells are collected from the perfusate by centrifugation at 800 rpm and harvested in culture flasks T-75, pretreated with human fibronectin. Cells are then harvested in the same medium, added with bovine hypothalamic growth factor (100 ng/ml). When the cells of the primary cell culture (the cells directly removed from ex-vivo umbilical vein) form a single layer of confluent cells (about 8,000,000 cells/flask), harvesting is stopped and the layers are washed and trypsinized. The cellular suspensions are transferred into wells of a culture plate having 24 wells, half of said wells being added with the same culture medium containing the drug at a 10^−4M concentration, and harvested in a thermostat at 37° C. at a constant moisture (90%), CO2=5%. When the drug is not soluble in the culture medium, it is formerly dissolved in a small amount of dimethylsulphoxide. The maximum amount of dimethylsulphoxide which can be added to the culture medium is 0.5%. Only the cells coming from these first subcultures are used for the tests with cumene hydroperoxide (CIP). The cells are identified as endothelial cells by morphological examination and by the specific immunological reaction towards factor VIII; these cultures did never show contaminations from myocytes or fibroblasts.
Before starting the test, the cellular culture medium is removed and the cellular layers are carefully washed with a standard physiologic solution buffered with phosphate 0.1 M pH 7.0, at the temperature of 37° C. The content of each well is then incubated for one hour with a CIP suspension in the culture medium at a 5 mM concentration. Evaluation of the cellular damage (apoptosis) is carried out by determining the percent variation of the DNA fragmentation in the cultures containing the drug+CIP with respect to the controls treated with CIP only. […] The fluorescence of each sample was determined on 5 replicates. Statistic evaluation has been made with t Student test (p<0.01).

CCCCC(C)(O)C/C=C/[C@H]1[C@H](O)CC(=O)[C@@H]1CCCCCCC(=O)OC (mixture of isomers) [Misoprostol]
GPT % without L-NAME [1]: 100%
Gastroenteropathy % without L-NAME [1]: 0%
maximum tolerated dose (dose (mg/Kg)/admin. route) [2]: 0.5/s.c. mg/Kg
Gastro-enteropathy (% incidence) with NEM ([3]; rats, NEM 25 mg/kg s.c. one hour before drug at maximum tolerated dose, sacrifice after 24 hours): 0%
Gastro-enteropathy (% incidence) without NEM ([3]; rats, single maximum tolerated dose, sacrifice after 24 hours, without NEM): 0%

O=C(O)C1CSCN1 (stereo not shown) [4-thiazolidin carboxylic acid]
% Radical Inhibition from Fe^II [4]: 100%
% inhibition radical production from DPPH [5]: 0%
% inhibition radical production from DPPH ([5]; listed as 4-Thiazolidincarboxylic acid): does not inhibit at any extent

Nc1c(Br)cc(Br)cc1CN[C@H]1CC[C@H](O)CC1 [Ambroxol, 4-[(2-amino-3,5-dibromophenyl)methylamino]cyclohexanol]
MTD at 24 h ([6]; po): 25 mg/kg
Gastro-enteropathy (% incidence) without NEM ([3]; rat, in vivo, 24 h): 0%
% gastropathy, animals not treated with L-NAME [7]: 60%
% gastropathy, animals treated with L-NAME [7]: 80%
activity at 100 µM ([8]; Homo sapiens, Endothelial cell, 1 h, CIP 5 mM for one hour, DNA fragmentation, read-out: Apoptosis % with respect to the controls treated only with CIP): 70%
inhibition of apoptosis induced by CIP (in words, t Student p<0.01) [8]: inhibit apoptosis

COc1ccc2[nH]c([S+]([O-])Cc3ncc(C)c(OC)c3C)nc2c1 (stereo not shown) [Omeprazol]
GPT % without L-NAME [1]: 100%
Gastroenteropathy % without L-NAME [1]: 0%
MTD at 24 h ([6]; sc): 30 mg/kg
Gastro-enteropathy (% incidence) without NEM ([3]; rat, in vivo, 24 h): 0%
inhibition of apoptosis induced by CIP (in words, t Student p<0.01) [8]: do not significantly inhibit apoptosis

Nc1c2c(nc3ccccc13)CCCC2 [Tacrine]
MTD at 24 h ([6]; sc): 1 mg/kg
Gastro-enteropathy (% incidence) without NEM ([3]; rat, in vivo, 24 h): 0%
% gastropathy, animals not treated with L-NAME [7]: 80%
% gastropathy, animals treated with L-NAME [7]: 70%
inhibition of apoptosis induced by CIP (in words, t Student p<0.01) [8]: do not significantly inhibit apoptosis

N[C@@H](Cc1c[nH]cn1)C(=O)O [histidine]
% Radical Inhibition from Fe^II [4]: 90%
% inhibition radical production from DPPH [5]: 0%

O=C(O)CCC(=O)O [succinic acid]
% Radical Inhibition from Fe^II [4]: 90%
% inhibition radical production from DPPH [5]: 0%
